Laboratory results reported in patent US20190192413A1, “SKIN ANTI-AGING COMPOSITION CONTAINING DEHYDROGENATED ABIETIC ACID AND COMPOUND K” (AMOREPACIFIC CORPORATION, priority 2016, published 2019).

Tests used:
Assay type in all cases: cell-based
human normal fibroblasts [1] = assay: Promotion of collagen biosynthesis (procollagen type-I C-peptide, PICP, in supernatant); details: 10 ppm, 48 hours, control group 125
Protocol: In order to examine the effect on the promotion of collagen biosynthesis that reduces wrinkles and enhances skin elasticity, human normal fibroblasts were seeded into a 96-well microplate at a density of 1×10^4 cells/well, and incubated in DMEM (Dulbecco's Modified Eagle's Medium) medium for 24 hours. After incubation, the medium was replaced with serum-free DMEM media containing 10 ppm of each of dehydroabietic acid (Comparative Example 1), compound K (Comparative Example 2), and a mixture of dehydroabietic acid and compound K (weight ratio of 1:7; Example 1) and then the cells were further incubated for 48 hours. At 24 hours before completion of the incubation, 10 μM ascorbic acid as the positive control was added to each well to promote collagen synthesis. After completion, each well was washed, and the medium was replaced with serum-free DMEM medium, after which the cells were further incubated for 24 hours. After incubation, the supernatant of each well was collected, and the amount of procollagen type-I C-peptide (PICP) in the supernatant was measured using a kit (Takara, Kyoto, Japan) to determine the amount of newly synthesized collagen.

human normal fibroblasts [2] = assay: Skin cell proliferation (MTT assay); details: 10 ppm, 24 hours; for Cell proliferation effect (%): relative to control group (equation 1); for Absorbance (570 nm): MTT, serum-free DMEM, control group 0.355
Protocol: In order to examine the effect on skin cell proliferation that reduces wrinkles and enhances skin elasticity, human normal fibroblasts were seeded into a 96-well microplate at a density of 1×10^4 cells/well, and incubated in DMEM (Dulbecco's Modified Eagle's Medium) medium for 24 hours. After incubation, the medium was replaced with serum-free DMEM media containing 10 ppm of each of dehydroabietic acid (Comparative Example 1), compound K (Comparative Example 2), and a mixture of dehydroabietic acid and compound K (weight ratio of 1:7; Example 1), and then the cells were further incubated for 24 hours. Then, 10 μl of 3-(4,5-dimethylthiazol-2-yl)-2,5-diphenyl tetrazolium (MTT, 5 mg/ml) was added to each well, which was then allowed to stand for 4 hours, followed by removal of the medium. Then, 100 μl of dimethyl sulfoxide solution was added to each well, and the absorbance at 570 nm was measured with a microplate reader. Based on the experiment results, the cell proliferation effect was calculated using the following equation 1. [formula]

human normal fibroblasts [3] = assay: Inhibition of lipofuscin accumulation in skin cells (lipofuscin fluorescence); details: for Absorbance (570 nm): 10 ppm, after 10 passages of subculture, excitation 360 nm, emission 570 nm, control group 0.650; for inhibition at 10 ppm: Homo sapiens, Fibroblast, after 10 passages, relative to control group (equation 2), read-out: Lipofusin accumulation inhibition rate (%)
Protocol: In order to examine the effect on the inhibition of lipofuscin accumulation that prevents aging, human normal fibroblasts were seeded into a 96-well microplate at a density of 1×10^4 cells/well, and incubated in DMEM (Dulbecco's Modified Eagle's Medium) medium for 24 hours. After incubation, the medium was replaced with serum-free DMEM media containing 10 ppm of each of dehydroabietic acid (Comparative Example 1), compound K (Comparative Example 2), and a mixture of dehydroabietic acid and compound K (weight ratio of 1:7; Example 1). Then, the cells were subcultured in a fresh medium every 48 hours. After 10 passages of subculture, the fluorescence of the self-luminescent protein lipofuscin in the cells was measured using a microplate reader with the excitation wavelength of 360 nm and the emission wavelength of 570 nm. Based on the experiment results, the effect on inhibition of lipofuscin accumulation was calculated using the following equation 2. [formula]

SMILES | Amount of collagen synthesized (human normal fibroblasts [1]) [ng/2 × 10^4] | Cell proliferation effect (%) (human normal fibroblasts [2]) | Absorbance (570 nm) (human normal fibroblasts [2]) | Absorbance (570 nm) (human normal fibroblasts [3]) | inhibition at 10 ppm (human normal fibroblasts [3]) [%]
O=C1O[C@H]([C@@H](O)CO)C(O)=C1O [Ascorbic acid, ascorbic acid] | 186 |  |  |  | 
CC(C)c1ccc2c(c1)CC[C@H]1[C@](C)(C(=O)O)CCC[C@]21C [Comparative Example 1, dehydroabietic acid] | 174 | 53.8 | 0.546 | 0.465 | 28.5
CC(C)=CCC[C@](C)(O[C@@H]1O[C@H](CO)[C@@H](O)[C@H](O)[C@H]1O)[C@H]1CC[C@]2(C)[C@@H]1[C@H](O)C[C@@H]1[C@@]3(C)CC[C@H](O)C(C)(C)[C@@H]3CC[C@]12C [Comparative Example 2, compound K] | 162 | 46.5 | 0.520 | 0.448 | 31.1
